The target of series [1] is T1, ATP-binding cassette sub-family C member 2 (Homo sapiens, UniProt Q92887). The experiment in a line: TP_TRANSPORTER: RT-PCR in HepG2 cells. In kind it is functional, cell-based.
Series [2] has as its target T1, ATP-binding cassette sub-family C member 2. The experiment in a line: TP_TRANSPORTER: Western blot, HepG2 cells. In kind it is functional, cell-based. (In general: A western blot detects proteins with antibodies after separation by electrophoresis.)

Molecules are shown by their SMILES.

T1 sequence (Q92887 whole entry): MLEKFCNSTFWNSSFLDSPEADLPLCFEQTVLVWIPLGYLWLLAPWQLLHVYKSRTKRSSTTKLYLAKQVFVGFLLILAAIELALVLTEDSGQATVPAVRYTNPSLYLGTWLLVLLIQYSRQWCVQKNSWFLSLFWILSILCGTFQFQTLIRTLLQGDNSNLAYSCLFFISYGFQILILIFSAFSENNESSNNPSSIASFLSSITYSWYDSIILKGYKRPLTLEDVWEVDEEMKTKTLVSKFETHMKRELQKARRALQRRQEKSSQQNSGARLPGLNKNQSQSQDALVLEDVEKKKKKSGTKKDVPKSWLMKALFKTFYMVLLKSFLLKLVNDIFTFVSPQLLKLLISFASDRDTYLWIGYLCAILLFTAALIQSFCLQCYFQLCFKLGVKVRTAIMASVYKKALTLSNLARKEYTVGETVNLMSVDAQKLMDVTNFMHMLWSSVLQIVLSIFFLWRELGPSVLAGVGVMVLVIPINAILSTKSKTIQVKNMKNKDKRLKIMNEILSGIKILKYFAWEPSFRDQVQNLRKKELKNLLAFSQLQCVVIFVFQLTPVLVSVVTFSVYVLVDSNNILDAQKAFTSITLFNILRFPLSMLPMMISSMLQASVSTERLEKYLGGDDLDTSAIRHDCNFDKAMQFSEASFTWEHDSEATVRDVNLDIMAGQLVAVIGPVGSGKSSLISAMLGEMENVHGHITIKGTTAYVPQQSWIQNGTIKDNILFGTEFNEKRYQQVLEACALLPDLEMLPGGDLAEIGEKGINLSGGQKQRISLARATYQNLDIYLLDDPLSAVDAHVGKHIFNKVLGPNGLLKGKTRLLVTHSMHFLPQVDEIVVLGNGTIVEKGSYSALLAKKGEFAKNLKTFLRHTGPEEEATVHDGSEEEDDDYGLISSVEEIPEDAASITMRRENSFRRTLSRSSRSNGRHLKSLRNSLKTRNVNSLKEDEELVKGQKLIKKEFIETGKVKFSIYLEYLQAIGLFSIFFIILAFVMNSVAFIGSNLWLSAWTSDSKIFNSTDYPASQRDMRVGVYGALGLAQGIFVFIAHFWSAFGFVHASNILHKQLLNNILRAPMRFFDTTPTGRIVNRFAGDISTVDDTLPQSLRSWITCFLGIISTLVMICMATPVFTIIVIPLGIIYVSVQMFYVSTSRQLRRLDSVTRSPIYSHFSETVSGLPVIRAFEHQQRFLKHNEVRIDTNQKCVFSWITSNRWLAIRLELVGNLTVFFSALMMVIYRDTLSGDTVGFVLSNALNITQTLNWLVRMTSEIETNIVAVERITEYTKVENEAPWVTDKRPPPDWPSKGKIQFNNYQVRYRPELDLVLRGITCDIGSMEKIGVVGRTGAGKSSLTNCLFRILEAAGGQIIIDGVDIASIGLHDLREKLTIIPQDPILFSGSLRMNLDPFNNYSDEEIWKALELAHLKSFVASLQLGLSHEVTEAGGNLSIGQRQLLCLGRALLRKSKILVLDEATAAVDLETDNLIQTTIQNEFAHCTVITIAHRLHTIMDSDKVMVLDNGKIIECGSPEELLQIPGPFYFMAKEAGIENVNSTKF

Consider `Clc1ccccc1C(c1ccccc1)(c1ccccc1)n1ccnc1` [CLOTRIMAZOLE], for which the Activity result in series [1] and in series [2] was “inducer [+]” in each case.

Take `CC(C)(C)c1cc(O)ccc1O` [E319]: the Activity entry in series [1] and in series [2] was “inducer [+]” each time.

Turning to `CO[C@H]1/C=C/O[C@@]2(C)Oc3c(C)c(O)c4c(O)c(c(/C=N/N5CCN(C)CC5)c(O)c4c3C2=O)NC(=O)/C(C)=C\C=C\[C@H](C)[C@H](O)[C@@H](C)[C@@H](O)[C@@H](C)[C@H](OC(C)=O)[C@@H]1C` [RIFAMPIN], the Activity result in series [1] and in series [2] was “inducer [+]” throughout.

As to `O[As](O)O` [TRIHYDROXYARSENITE(III)], the Activity result in series [1] and in series [2] was “inducer [+]” throughout.
